According to patent publication US20260184700A1, “PDK1 REGULATORY COMPOUND AND COMPOSITION CONTAINING THE SAME” (PROVIBIO CO., LTD., priority 2024, published 2026):

What was measured:
[1] = system: psoriasis-induced BALB/c mice; assay: Psoriasis animal model (Aldara cream, Imiquimod); format: in vivo, mouse
Method: To verify the therapeutic effect of the compound according to the present invention on psoriasis, a psoriasis animal model was established as follows, and the compound according to the present invention was administered to evaluate the alleviation of skin lesions and changes in immune cell patterns.
For the establishment of the psoriasis animal model, BALB/c mice (7 weeks old, female, 20 g) were purchased from HanabioTech Co., Ltd. and acclimatized to the rearing environment for one week.
Subsequently, the hair on the mouse back was shaved using a hair removal device for the first time, and then completely shaved using a depilatory cream (Nicrin Cream (80% thioglycolic acid, Il Dong Pharmaceutical)) for the second time. The mice were then kept for 24 hours to confirm the absence of skin damage.
To verify the psoriasis prevention and therapeutic effects of the compounds according to the present invention, the following experimental groups were established:
[Normal control group (Normal, Not Treatment), psoriasis-induced control group (Psoriasis, Not Treatment), psoriasis-induced vehicle control group (Psoriasis, Vehicle), experimental group (GO85, GO86, GO88, GO89, PBK-2024-010, PBK-2024-026, PBK-2025-002, PBK-2025-004, PBK-2025-016, PBK-2025-017, PBK-2025-023)]. […]
Body weights of mice in each group were measured on days 1, 4, and 8 after the start of injection and psoriasis induction. […]
To evaluate the therapeutic effect in a psoriasis-induced mouse model, the PASI (Psoriasis Area and Severity Index) score was measured.
The PASI score is based on three criteria: erythema, scaling, and skin thickness, each scored from 0 (none) to 4 (severe). […]
Observations were conducted daily at the same time, and the same observer visually assessed each criterion and recorded the scores, with the results presented in FIG. 13. […]
All samples were measured in duplicate, and the absorbance was measured at 450 nm using a microplate reader.

[2] = system: HCT-116 colon cancer cell lines; assay: Invasion Assay using Matrigel, HCT-116; format: cell-based, human; details: HCT-116, Matrigel invasion, 24 hours treatment
Method: To evaluate the metastasis inhibitory efficacy of the compounds of the present invention on HCT-116 colon cancer cell lines, an Invasion Assay using Matrigel was performed to assess the cells' invasion ability.
First, Matrigel was thawed on ice in RPMI-1640 medium without FBS, then diluted with DMEM at a ratio of 1:20.
The diluted Matrigel mixture was applied to the upper chamber at 100 μl per well, and 750 μl of RPMI-1640 without FBS was added to the lower chamber.
The plates were then incubated at 37° C. for 1 hour to allow the Matrigel to solidify.
After coating, the Matrigel mixture in the upper chamber was removed using a pipette, and the chamber was washed with RPMI without FBS.
Human-derived colorectal cancer cell line HCT-116, obtained from the Korean Cell Bank, was cultured in RPMI-1640 medium containing 10% FBS.
Following stabilization, the cells were harvested using Trypsin-EDTA treatment, centrifuged at 1,200 rpm for 3 minutes, the supernatant was removed, and the cells were resuspended in the same medium, the medium in the lower chamber was replaced with 750 μl of RPMI-1640 supplemented with 10% FBS, and the cells were seeded into the upper chamber at a density of 5×10^4 cells/well.
The cells were cultured for 24 hours after attachment, and then the compounds according to the present invention (G078, G085, G086, G088, G089, PBK-2024-010, PBK-2025-010, PBK-2025-013, PBK-2025-016) and the control substance DMSO were diluted and added to the upper chamber after removing the medium.
Additionally, the medium in the lower chamber was replaced with fresh RPMI-1640 containing FBS, and the culture was continued.
After an additional 24 hours, the medium was removed, and 1 ml of methanol was added for 10 minutes to fix the cells.
Subsequently, 1 ml of Hematoxylin was added and reacted for 5 minutes, followed by 1 ml of Eosin, which was reacted for 30 seconds. The sample was then washed with distilled water (DW).
After staining was complete, any remaining cells in the upper chamber were removed. Finally, the infiltrated cells were observed under a microscope, photographed, and the degree of infiltration was analyzed.

SMILES: Nc1nc(NC(=O)CCCCCCCCCCCCN2CCN(CCO)CC2)nc2nc[nH]c12 [Compound 15, 12-[4-(2-hydroxyethyl)piperazin-1-yl]dodecyl-N-(6-aminopurine-2-yl)carboxamide]
- efficacy in improving dermatological symptoms [1]: excellent efficacy in improving dermatological symptoms
- number of infiltrated cells [2]: reduction in the number of infiltrated cells
